Data: US20150050410A1, “COMPOUNDS, COMPOSITIONS, AND METHODS FOR MODULATING SWEET TASTE” (Chromocell Corporation, priority 2013, published 2015)

Legend:
Assay type in all cases: in vivo
[1] = test system: perception of the sweet taste of an aqueous solution of sweetener in humans; assay: Two-alternative forced choice "sip and spit" method (2AFC); conditions: for Fold increase in perceived sweetness: positive control conc. / test sample conc.
Method: The taste test panelists used in the Examples 1-3 were selected using a sensory acuity screening program. Candidate taste panelists were recruited, with prescreening and personal interviews, and were assessed and for their ability to detect, recognize and differentiate basic taste attributes or mixtures thereof as part of a standardized acuity test. This included basic tastes of sweet, sour, salty, bitter and umami, as well as having the capacity to focus on specific aspects of sensory character such as ranking the various tastes perceived and identifying the basic tastes presented at threshold levels.
The effect of the test compounds on the perception of the sweet taste of an aqueous solution of sweetener in humans was evaluated using a two-alternative forced choice “sip and spit” method (2AFC).
(§1) The aqueous sweetener solutions were prepared by adding, fructose, sucrose or glucose (by weight), to water to achieve the desired concentration.
Compounds were first prepared as a 500-fold concentrated stock solution in 100% ethanol. These concentrated stocks were then added to the aqueous sweetener solutions to result in a final ethanol concentration of 0.2%. The control (positive and negative) samples were also normalized to 0.2% ethanol. This level of ethanol was not seen to contribute any perceived sweetness.
The 2AFC test used for compound evaluation was a blind and randomized test where taste panelists (n=15) evaluate a pair of sweetener solutions at a time one sample contains aqueous sweetener solution plus compound (i.e. test) while the other contains aqueous sweetener solution at higher concentration without compound (i.e. positive control). Each test sample was compared against a positive control. For example, if the test sample contained 1× sweetener concentration with compound (e.g. 5% sucrose with compound), the positive control sample contained a 1.1× sweetener concentration (e.g. 5.5% sucrose without compound).
Panelists were instructed not to eat or drink (except water) for at least 1 h before the test. During the test, panelists were instructed to sip each sample, swirl it around their mouth and then expectorate. After tasting each sample in the pair, panelists were instructed to record the sample that is “sweeter” in taste. Panelists cleansed their palates by rinsing with water, eating a cracker and waiting for an interval of about 5 minutes. Each pair was tasted twice. All samples were tasted at ambient temperatures. Data were analyzed using binomial probabilities.
Approximate levels of sweetness enhancement in column 5 of Table 2 were calculated as follows:
Approximate levels of sweetness enhancement=Sweetener concentration of positive control surpassed by the test sample, divided by sweetener concentration for compound-containing sample (e.g. 1.15×=5.75% sucrose/5% sucrose).

[2] = test system: perception of the sweet taste in humans; assay: Trained descriptive analysis (DA) panel, sweet attribute; conditions: 35 ppm; for compound effects beyond the additive effect of inherent sweetness: 4% fructose and 8% sucrose; for perceived sweetness compared to control sweetener solutions (FIG. 2): aqueous fructose and sucrose solutions at pH 3; for perceived sweetness compared to control sweetener solutions (FIG. 2) / perceived sweetness compared to control sweetener solutions (FIG. 1): ** p<0.01; for perceived sweetness compared to control sweetener solutions (FIG. 1): aqueous fructose and sucrose solutions at pH 7
Method: The effect of the test compounds on the perception of the sweet taste in an aqueous environment, in the absence or presence of carbohydrate sweeteners, was evaluated using a descriptive analysis methodology with a group of trained panelists, as follows.
Candidate panelists were recruited, with prescreening and personal interviews, and were assessed for their ability to detect, recognize and differentiate basic taste attributes or mixtures thereof as part of a standardized acuity test. These candidate panelists were also assessed for their innate ability to identify flavors, and to rank on intensity scales. Other senses such as smell and vision were also included as part of the assessment. Candidates also were screened for their ability to use the language to describe and articulate ideas.
Selected candidates proceeded to training as a group in three phases: (1) Lexicon development, (2) Concept alignment, and (3) Scaling descriptors. During lexicon development, panelists evaluated products appropriate for use in the study to generate and align on terms describing the flavor, taste, aromatic, trigeminal, and temporal attributes. During concept alignment, the panel evaluated the products mentioned above to clarify and confirm the attributes that were generated during lexicon development using reference standards that appropriately define each attribute; these are either physical references (e.g. sucrose solutions) or verbal descriptions (e.g. overall flavor). Product terms and concepts were validated during this portion of the study.
In the last phase, scaling descriptors, the panel participated in a series of exercises focused on ordering and ranking samples according to relative attribute intensity, measuring attribute intensity using a defined length of line scale. Whenever possible, different levels or concentration of references were used as anchors to facilitate use of the scale. Panelists were provided with blinded references at this stage to evaluate their understanding and perception of the scale.
The panel used in this example was trained to reference sweet attributes in an absolute manner, such that a particular concentration of sweetener is always measured by the panelists at the same point using a 15 cm line scale where each cm represents a 1% increase in sucrose to cover the range of 0% to 15% sucrose. For the rest of the attributes, the panel was trained using a hybrid approach between descriptive analysis methods (e.g. quantitative descriptive analysis, the sensory spectrum, etc.) well-known to those skilled in the art.
The trained panel was then used for a descriptive analysis assessment for Compounds 1, 2 and 3 in aqueous solutions at pH 3 and pH 7. Each of the three compounds was tested at 35 ppm in sucrose and fructose sweeteners. In addition, Compounds 1, 2 and 3 were also examined in water at pH 3 and pH 7 to assess for any inherent sweetness.
The aqueous sweetener solutions were prepared by adding, fructose or sucrose (by weight), to water to achieve the desired concentration. Aqueous sucrose solutions at pH 3 were buffered using a final concentration of 0.096% Citric Acid plus 0.036% Sodium Citrate while aqueous fructose solutions at pH 3 were buffered using a final concentration of 0.06% Citric Acid and 0.0225% Sodium Citrate.
Compounds were first prepared as a […] concentrated stock solution in 100% ethanol. These concentrated stocks were then added to the aqueous sweetener solutions to result in a final ethanol concentration of 0.2%. In addition to compounds, a solubilizing agent at a final concentration of 0.02% was added to the aqueous sweetener solutions. Control samples were also balanced with 0.2% ethanol and in certain cases 0.02% solubilizing agent.
Both control (aqueous sweetener solutions without compound) and variant (aqueous sweetener solutions with compound) samples were blinded and randomized (by sweetener and pH blocks). […]

[3] = test system: perception of the sweet taste of an aqueous solution of sweetener in humans; assay: Ranking "sip and spit" assessment of sweetness perception (R index); conditions: test sample 5% sucrose; compound 10 ppm; vs negative control; R index >=60 = significantly different
Method: The effect of the test compounds on the perception of the sweet taste of an aqueous solution of sweetener in humans was evaluated using a ranking “sip and spit” method.
as §1
Compounds were first prepared as a 500-fold concentrated stock solution in 100% ethanol. These concentrated stocks were then added to the aqueous sweetener solutions to result in a final ethanol concentration of 0.2%. The control (positive and negative) samples were also normalized to 0.2% ethanol.
In the ranking test used for compound evaluation, taste panelists (n=15), rank samples in increasing order of sweetness. One set, comprising of 6 samples, was presented to each panelists at a given time and are asked to rank them in order of increasing sweetness.
Panelists were instructed not to eat or drink (except water) for at least 1 h before the test. During the test, panelists were instructed to sip each sample, swirl it around their mouth and then expectorate. After tasting each set, panelists were instructed to rank the 6 samples within the set from least sweet to most sweet. Where rank 1—is lowest in sweetness and rank 6—is highest in sweetness. Panelists cleansed their palates by rinsing with water, eating a cracker and waiting for an interval of 10 minutes. […]

[4] = test sample 4% fructose, positive control fructose, compound 20 ppm
[5] = test sample 4% fructose, compound 25 ppm
[6] = test sample 4% fructose, positive control fructose, compound 25 ppm

SMILES: CCCOc1ccc(C2CC(=O)c3c(O)cc(O)cc3O2)cc1O (centres unmarked) [Compound 5, 5,7-dihydroxy-2-(3-hydroxy-4-propoxyphenyl)chroman-4-one]
- Sweetener Concentration of positive control surpassed by test sample [1, 4]: > 4.4%

SMILES: COc1ccc([C@H]2CC(=O)c3c(O)cccc3O2)cc1O (single isomer, unassigned) [Compound 3]
- Fold increase in perceived sweetness [1, 5]: >1.25X
- Sweetener Concentration of positive control surpassed by test sample [1, 6]: > 5%
- Fold increase in perceived sweetness ([1]; test sample 5% sucrose, compound 15 ppm): >1.20X
- Sweetener Concentration of positive control surpassed by test sample ([1]; test sample 5% sucrose, positive control sucrose, compound 15 ppm): > 6%
- Fold increase in perceived sweetness ([1]; test sample 6.5% glucose, compound 25 ppm): >1.20X
- Sweetener Concentration of positive control surpassed by test sample ([1]; test sample 6.5% glucose, positive control glucose, compound 25 ppm): > 7.8%
- compound effects beyond the additive effect of inherent sweetness ([2]; pH 3, Table 7 vs Table 5): super-additive effects
- compound effects beyond the additive effect of inherent sweetness ([2]; pH 7, Table 6 vs Table 4): super-additive effects
- perceived sweetness compared to control sweetener solutions (FIG. 2) [2]: significant increase in perceived sweetness
- perceived sweetness compared to control sweetener solutions (FIG. 1) [2]: significant increase in perceived sweetness

SMILES: COc1ccc([C@@H]2CC(=O)c3c(O)cccc3O2)cc1O (single isomer, unassigned) [Compound 2]
- Fold increase in perceived sweetness [1, 5]: >1.20X
- Sweetener Concentration of positive control surpassed by test sample [1, 6]: > 4.8%
- Fold increase in perceived sweetness ([1]; test sample 5% sucrose, compound 15, 25 ppm): >1.20X
- Sweetener Concentration of positive control surpassed by test sample ([1]; test sample 5% sucrose, positive control sucrose, compound 15, 25 ppm): > 6%
- Fold increase in perceived sweetness ([1]; test sample 6.5% glucose, compound 10, 20, 25 ppm): >1.15X
- Sweetener Concentration of positive control surpassed by test sample ([1]; test sample 6.5% glucose, positive control glucose, compound 10, 20, 25 ppm): > 7.48%
- compound effects beyond the additive effect of inherent sweetness ([2]; pH 3, Table 7 vs Table 5): super-additive effects
- compound effects beyond the additive effect of inherent sweetness ([2]; pH 7, Table 6 vs Table 4): super-additive effects
- perceived sweetness compared to control sweetener solutions (FIG. 2) [2]: significant increase in perceived sweetness
- perceived sweetness compared to control sweetener solutions (FIG. 1) [2]: significant increase in perceived sweetness

SMILES: COc1ccc(C2CC(=O)c3c(O)cc(F)cc3O2)cc1O (centres unmarked) [Compound 15, 7-fluoro-5-hydroxy-2-(3-hydroxy-4-methoxyphenyl)chroman-4-one]
- Sweetener Concentration of positive control surpassed by test sample [1, 4]: > 4.4%

SMILES: O=C1c2c(O)cc(O)cc2OC(c2ccc(O)c(O)c2)C1O (centres unmarked) [Compound 11, 2-(3,4-dihydroxyphenyl)-3,5,7-trihydroxychroman-4-one]
- R Index Score [3]: 64

SMILES: COc1ccc(C2CC(=O)c3c(O)cc(OCCCS(=O)(=O)[O-])cc3O2)cc1O.[K+] (centres unmarked) [Compound 14, 3-((5-hydroxy-2-(3-hydroxy-4-methoxyphenyl)-4-oxochroman-7-yl)oxy)propane-1-sulfonic acid potassium salt]
- Fold increase in perceived sweetness ([1]; test sample 4% fructose, compound 20 ppm): >1.1X
- Sweetener Concentration of positive control surpassed by test sample [1, 4]: > 4.4%

SMILES: COc1ccc(C2CC(=O)c3c(O)cc(OCCCC(=O)O)cc3O2)cc1O (centres unmarked) [Compound 4, 4-((5-hydroxy-2-(3-hydroxy-4-methoxyphenyl)-4-oxochroman-7-yl)oxy)butanoic acid]
- Sweetener Concentration of positive control surpassed by test sample [1, 4]: > 4.4%
